Reference: BigSolDB 2.1

O=C1C=CC(=O)O1
solubility (mole fraction)
Settings	278.15 K	283.15 K	288.15 K	293.15 K	298.15 K	303.15 K	308.15 K	313.15 K	318.15 K	323.15 K
in DMF	0.0297	0.0372	0.0466	0.0584	0.0707	0.087	0.104	0.125	0.15	0.176
in acetic acid	0.0156	0.0216	0.0281	0.0369	0.0472	0.0605	0.0767	0.0962	0.119	0.146
in acetone	0.00999	0.0136	0.0191	0.0264	0.0336	0.0453	0.0599	0.0768	0.0977	0.124
in acetonitrile	0.012	0.0173	0.0232	0.0307	0.0408	0.0526	0.0682	0.0873	0.111	0.139
in ethyl acetate	0.00906	0.0125	0.017	0.0219	0.0303	0.0398	0.0518	0.0665	0.0857	0.107
in isopropanol	0.00617	0.00942	0.013	0.0178	0.0241	0.0321	0.043	0.0552	0.0712	0.0909
in methanol	0.0211	0.0282	0.0359	0.0465	0.0582	0.0719	0.0886	0.109	0.132	0.159
in n-butanol	0.00359	0.00539	0.00796	0.0116	0.0168	0.0236	0.033	0.0455	0.0618	0.0828
